Measurements reported in PubChem BioAssay AID292 (DTP/NCI, 2004).
Values joined by “and” are separate entries in the source; they are usually repeats but may differ in a detail not shown here. Equal entries are not always repeated. Toxic doses and inconclusive results are not listed. Peptide text beside a SMILES is read from it. * marks the point of attachment. Trt = c1ccc(C(c2ccccc2)(c2ccccc2)*)cc1; Cbz = O=C(OCc1ccccc1)*; Bn = c1ccc(C*)cc1; βAla = NCCC(=O)O

Test system: B6C3F1 mice, ip Sarcoma M5076, median survival T/C
Experiment: NCI In Vivo Anticancer Drug Screen. Data for tumor model Sarcoma M5076 (intraperitoneal) in B6C3F1 mice
Settings: endpoint: median survival time, schedule: Q04DX004 (ip), higher = longer survival
Description: The antitumor activity of compounds was measured in mice bearing transplantable tumors. Survival or tumor size were measured and the results are expressed as the measurement made in the treated group (T) divided by the measurement made in the vehicle treated control group (C). The tumor model used in this assay is Sarcoma M5076 (intraperitoneal) in B6C3F1 mice

[1] = dose: 12.5 mg/kg/injection, vehicle: water
[2] = dose: 25.0 mg/kg/injection, vehicle: water
[3] = dose: 50.0 mg/kg/injection, vehicle: water
[4] = dose: 100.0 mg/kg/injection, vehicle: water
[5] = dose: 12.5 mg/kg/injection, vehicle: saline with Tween-80
[6] = dose: 25.0 mg/kg/injection, vehicle: saline with Tween-80
[7] = dose: 50.0 mg/kg/injection, vehicle: saline with Tween-80
[8] = dose: 100.0 mg/kg/injection, vehicle: saline with Tween-80
[9] = dose: 200.0 mg/kg/injection, vehicle: saline with Tween-80
[10] = dose: 25.0 mg/kg/injection, vehicle: saline
[11] = dose: 50.0 mg/kg/injection, vehicle: Klucel (hydroxypropylcellulose) (HPC)
[12] = dose: 50.0 mg/kg/injection, vehicle: saline
[13] = dose: 100.0 mg/kg/injection, vehicle: saline
[14] = dose: 200.0 mg/kg/injection, vehicle: Klucel (hydroxypropylcellulose) (HPC)
[15] = dose: 400.0 mg/kg/injection, vehicle: Klucel (hydroxypropylcellulose) (HPC)
[16] = dose: 400.0 mg/kg/injection, vehicle: saline with Tween-80
[17] = dose: 800.0 mg/kg/injection, vehicle: saline with Tween-80
[18] = dose: 37.5 mg/kg/injection, vehicle: saline
[19] = dose: 75.0 mg/kg/injection, vehicle: saline
[20] = dose: 100.0 mg/kg/injection, vehicle: Klucel (hydroxypropylcellulose) (HPC)

Question: With Cc1cc2nncn2c2nnnn12 as the compound, how does the T/C [1] read?
Answer: 101 % of control

Question: What about the T/C [2] of the same compound?
Answer: 98 % of control

Question: What about the T/C [3] of the same compound?
Answer: 95 % of control

Question: And the T/C [4]?
Answer: 101 % of control

Question: And the T/C (dose: 200.0 mg/kg/injection, vehicle: water)?
Answer: 98 % of control

Question: Which T/C [2] does the source give for Cc1nnc2nc(N)[nH]n2c1=O here?
Answer: 97 % of control

Question: What about the T/C [3] of the same compound?
Answer: 104 % of control

Question: And the T/C [4]?
Answer: 96 % of control

Question: Which T/C [5] does the source give for COC(=O)c1c(C(=O)OC)c2c(C)nn3ccc1n23 here?
Answer: 96 % of control

Question: What about the T/C [6] of the same compound?
Answer: 97 % of control

Question: What about the T/C [7] of the same compound?
Answer: 96 % of control

Question: And the T/C [8]?
Answer: 104 % of control

Question: What about the T/C [9] of the same compound?
Answer: 93 % of control

Question: For COc1cc(C2c3cc4c(cc3[C@@H](OC3OC5CO[C@@H](C)OC5C(O)C3O)[C@H]3COC(=O)C23)OCO4)cc(OC)c1OC (stereo partly specified), which T/C [10] is on record?
Answer: 116 % of control

Question: What about the T/C [11] of the same compound?
Answer: 118 % of control

Question: And the T/C [12]?
Answer: 110 % of control

Question: What about the T/C (dose: 50.0 mg/kg/injection, vehicle: suspension in saline) of the same compound?
Answer: 103 % of control

Question: What about the T/C [13] of the same compound?
Answer: 122 % of control

Question: And the T/C (dose: 100.0 mg/kg/injection, vehicle: suspension in saline)?
Answer: 99 % of control

Question: What about the T/C [14] of the same compound?
Answer: 171 % of control

Question: And the T/C (dose: 200.0 mg/kg/injection, vehicle: suspension in saline)?
Answer: 123 % of control

Question: And the T/C (dose: 300.0 mg/kg/injection, vehicle: suspension in saline)?
Answer: 168 % of control

Question: And the T/C [15]?
Answer: 233 % of control

Question: How did the T/C [12] turn out when CC(C)c1ccc(C2NC(=S)NC(=O)C2C#N)cc1 (stereo unspecified) was run?
Answer: 100 % of control

Question: And the T/C [13]?
Answer: 97 % of control

Question: What about the T/C (dose: 200.0 mg/kg/injection, vehicle: saline) of the same compound?
Answer: 88 % of control

Question: With O=C1C2CC(Cl)C(SSC3CC4C(=O)N(SC(Cl)(Cl)C(Cl)Cl)C(=O)C4CC3Cl)CC2C(=O)N1SC(Cl)(Cl)C(Cl)Cl (stereo unspecified) as the compound, how does the T/C [5] read?
Answer: 97 % of control

Question: And the T/C [6]?
Answer: 95 % of control

Question: What about the T/C [7] of the same compound?
Answer: 98 % of control and 105 % of control

Question: And the T/C [8]?
Answer: 90 % of control and 97 % of control

Question: And the T/C [9]?
Answer: 102 % of control and 117 % of control

Question: And the T/C [16]?
Answer: 110 % of control

Question: And the T/C [17]?
Answer: 109 % of control

Question: What does the source list for Nc1ncnc2c1c1c(=O)[nH]c(=O)[nH]c1n2C1OC(CO)C(O)C1O (stereo unspecified)?
Answer: T/C (dose: 50.0 mg/kg/injection, vehicle: distilled water + Tween-80): 106 % of control and 115 % of control; T/C (dose: 100.0 mg/kg/injection, vehicle: distilled water + Tween-80): 117 % of control; T/C (dose: 200.0 mg/kg/injection, vehicle: distilled water + Tween-80): 104 % of control and 108 % of control; T/C (dose: 400.0 mg/kg/injection, vehicle: distilled water + Tween-80): 116 % of control

Question: How did the T/C (dose: 37.5 mg/kg/injection, vehicle: saline with Tween-80) turn out when O=C(NNC(=S)NC1OC(CO)C(O)C(O)C1O)c1cccc(C(=O)NNC(=S)NC2OC(CO)C(O)C(O)C2O)n1 (stereo unspecified) was run?
Answer: 97 % of control

Question: And the T/C [18]?
Answer: 101 % of control

Question: And the T/C (dose: 75.0 mg/kg/injection, vehicle: saline with Tween-80)?
Answer: 98 % of control

Question: What about the T/C [19] of the same compound?
Answer: 96 % of control

Question: And the T/C (dose: 150.0 mg/kg/injection, vehicle: saline with Tween-80)?
Answer: 98 % of control

Question: And the T/C (dose: 150.0 mg/kg/injection, vehicle: saline)?
Answer: 101 % of control

Question: What about the T/C (dose: 300.0 mg/kg/injection, vehicle: saline with Tween-80) of the same compound?
Answer: 99 % of control

Question: What about the T/C (dose: 300.0 mg/kg/injection, vehicle: saline) of the same compound?
Answer: 96 % of control

Question: What about the T/C (dose: 600.0 mg/kg/injection, vehicle: saline with Tween-80) of the same compound?
Answer: 98 % of control

Question: And the T/C (dose: 600.0 mg/kg/injection, vehicle: saline)?
Answer: 103 % of control

Question: With O=[N+]([O-])c1ccc(C=C2C=CN(CCO)C=C2)cc1 as the compound, how does the T/C [6] read?
Answer: 115 % of control

Question: And the T/C [7]?
Answer: 115 % of control

Question: What about the T/C [8] of the same compound?
Answer: 106 % of control

Question: O=C1C2CC3CC1CC(Cl)(C3)C2 was tested. Which T/C [5] did it give?
Answer: 105 % of control

Question: What about the T/C [6] of the same compound?
Answer: 99 % of control

Question: What about the T/C [7] of the same compound?
Answer: 94 % of control

Question: Which results are given for Nc1nc2ncn(O)c2c(=O)[nH]1?
Answer: T/C (dose: 3.12 mg/kg/injection, vehicle: water): 100 % of control; T/C (dose: 6.25 mg/kg/injection, vehicle: water): 100 % of control; T/C [1]: 97 % of control; T/C [2]: 93 % of control; T/C [3]: 101 % of control

Question: Cc1ncc(CO)c(CO)c1OCC(O)CN1CCN(C(=O)c2ccccc2)CC1 (stereo unspecified) was tested. Which T/C [10] did it give?
Answer: 103 % of control

Question: And the T/C [12]?
Answer: 103 % of control

Question: And the T/C [13]?
Answer: 99 % of control

Question: What does the source list for Nc1ccc2ccc(N)cc2c1?
Answer: T/C [6]: 93 % of control; T/C [7]: 96 % of control; T/C [8]: 89 % of control; T/C [9]: 93 % of control

Question: With COC(=O)C(CSC(c1ccccc1)(c1ccccc1)c1ccccc1)NC(=O)C(CSCc1ccccc1)NC(=O)CCNC(=O)OCc1ccccc1 (stereo unspecified) ({Cbz-βAla}-Cys(Bn)-Cys(Trt)-OMe; configuration not given here) as the compound, how does the T/C [11] read?
Answer: 102 % of control

Question: And the T/C [20]?
Answer: 97 % of control

Question: What about the T/C [14] of the same compound?
Answer: 106 % of control

Question: What about the T/C [15] of the same compound?
Answer: 89 % of control

Question: And the T/C (dose: 800.0 mg/kg/injection, vehicle: Klucel (hydroxypropylcellulose) (HPC))?
Answer: 107 % of control

Question: How did the T/C [7] turn out when N#CCS(=O)(=O)c1cccc[n+]1[O-] was run?
Answer: 99 % of control

Question: And the T/C [8]?
Answer: 99 % of control

Question: What about the T/C [9] of the same compound?
Answer: 93 % of control

Question: Which T/C (dose: 5.0 mg/kg/injection, vehicle: saline) does the source give for COc1cc2c(c(OC)c1OC)-c1ccc(OC)c(=O)cc1[C@@H](N)CC2 here?
Answer: 119 % of control

Question: And the T/C (dose: 5.0 mg/kg/injection, vehicle: suspension in saline)?
Answer: 116 % of control

Question: And the T/C (dose: 8.6 mg/kg/injection, vehicle: suspension in saline)?
Answer: 123 % of control

Question: And the T/C (dose: 10.0 mg/kg/injection, vehicle: suspension in saline)?
Answer: 118 % of control

Question: And the T/C (dose: 20.0 mg/kg/injection, vehicle: saline)?
Answer: 152 % of control

Question: And the T/C (dose: 24.0 mg/kg/injection, vehicle: suspension in saline)?
Answer: 123 % of control

Question: And the T/C (dose: 40.0 mg/kg/injection, vehicle: saline)?
Answer: 157 % of control

Question: What does the source list for CN=C(NC)c1ccc(NC(=O)/C=C\c2ccc(/C=C/C(=O)Nc3ccc(C(=NC)NC)cc3)cc2)cc1?
Answer: T/C (dose: 3.12 mg/kg/injection, vehicle: Klucel (hydroxypropylcellulose) (HPC)): 124 % of control; T/C (dose: 3.75 mg/kg/injection, vehicle: Klucel (hydroxypropylcellulose) (HPC)): 116 % of control; T/C (dose: 6.25 mg/kg/injection, vehicle: Klucel (hydroxypropylcellulose) (HPC)): 115 % of control; T/C (dose: 10.42 mg/kg/injection, vehicle: Klucel (hydroxypropylcellulose) (HPC)): 164 % of control; T/C (dose: 17.37 mg/kg/injection, vehicle: Klucel (hydroxypropylcellulose) (HPC)): 105 % of control

Question: With Cc1cc2c(C(C)C)c(O)c(O)c(C=NCCO)c2c(O)c1-c1c(C)cc2c(C(C)C)c(O)c(O)c(C=NCCO)c2c1O as the compound, how does the T/C [7] read?
Answer: 116 % of control

Question: What about the T/C (dose: 86.4 mg/kg/injection, vehicle: saline with Tween-80) of the same compound?
Answer: 120 % of control

Question: What about the T/C [8] of the same compound?
Answer: 121 % of control

Question: What about the T/C [9] of the same compound?
Answer: 123 % of control

Question: What about the T/C (dose: 240.0 mg/kg/injection, vehicle: saline with Tween-80) of the same compound?
Answer: 150 % of control

Question: And the T/C [16]?
Answer: 92 % of control and 210 % of control

Question: And the T/C [17]?
Answer: 180 % of control

Question: What does the source list for O=S1(=O)C(c2ccc(F)cc2)=C(O)c2cc3ccccc3nc21?
Answer: T/C (dose: 17.19 mg/kg/injection, vehicle: sodium bicarbonate): 97 % of control; T/C (dose: 34.38 mg/kg/injection, vehicle: sodium bicarbonate): 93 % of control; T/C (dose: 68.75 mg/kg/injection, vehicle: sodium bicarbonate): 93 % of control

Question: For N#CC1C(=O)NC(=S)NC1c1ccccc1 (stereo unspecified), which T/C [11] is on record?
Answer: 97 % of control

Question: And the T/C [20]?
Answer: 101 % of control

Question: And the T/C [14]?
Answer: 97 % of control

Question: And the T/C [15]?
Answer: 100 % of control

Question: Which T/C [18] does the source give for CN(C)CCOCC(O)(c1ccccc1)c1ccccc1 here?
Answer: 100 % of control

Question: What about the T/C [19] of the same compound?
Answer: 100 % of control

Question: What does the source list for O=C1CCC(=O)N1CO?
Answer: T/C [7]: 93 % of control; T/C [8]: 101 % of control; T/C [9]: 87 % of control; T/C [16]: 100 % of control; T/C [17]: 97 % of control
